Like-named read-outs stand apart in the source and are kept apart here.
Legend:
[1] = tested on: S. mansoni adult worms; experiment: Adult worm screens (WormassayGP2 motility, egg count); format: cell-based; details: Schistosoma mansoni, two dose response titrations (100 – 3.13 µM)
[2] = tested on: S. mansoni schistosomula; experiment: Schistosomula screens (Roboworm, phenotype and motility); format: cell-based, Schistosoma mansoni; details: 72 h
Protocol: Anthelmintic activity on the schistosomula stage of S. mansoni was evaluated using Roboworm, an integrated high-throughput, high content image analysis platform originally developed by Paveley et al. and subsequently used by our research group as previously described, [28], [50], [51]. Alternatively, the computer application Worminator can be used to assess motion of microscopic parasites such as the schistosomula stage of S. mansoni. Compounds (as single concentration or two-fold titrations) were prepared for screening in a 384-well plate (PerkinElmer, MA, USA), where solutions (1.6 mM, 0.5 μl) were wet stamped using the Biomek NX ^P liquid handling platform into Basch medium (20 μl). Negative (0.625% DMSO) and positive (Auranofin - AUR - at 10 µM final concentration in 0.625% DMSO) control wells were similarly prepared. Mechanically transformed schistosomula (about 120 parasites in 60 μl of Basch medium) were distributed into each treated well using a WellMate (Thermo Scientific, Loughborough, UK). Schistosomula/compound co-cultures were then incubated at 37°C for 72 h in a humidified atmosphere containing 5% CO 2. At 72 h, parasite/compound co-cultures were resuspended and tissue culture plates were imaged under the same conditions (37°C for 72 h in a humidified atmosphere containing 5% CO 2) using an ImageXpressXL high content imager (Molecular Devices, UK) with subsequent images processed for phenotype and motility as previously reported. Plate analysis returned a phenotype and motility score for each well and any scores below -0.15 and -0.35 (defined threshold anti-schistosomula values for phenotype and motility scores, respectively) defined a condition displaying anti-schistosomula activity. Compound screens were assessed based on the Z´ values (derived from the means and standard deviations of positive and negative controls) and those equal to or above 0.3 for both phenotype and motility were considered successful.
Phenotype and motility scores of each titration were used to generate dose response curves in GraphPad Prism 7.02 based on the corrected average score of the three replicates for each data point.

[3] = tested on: S. mansoni adult worms; experiment: Scanning electron microscopy of compound damage on adult worms; format: cell-based, Schistosoma mansoni; details: 12.50 µM (sub-lethal), 72 h
Protocol: Following 72 h of drug treatment, the cultured S. mansoni adult worms were collected, separated by sex and relaxed with tricaine anaesthetic solution (0.25% w/v of ethyl 3-aminobenzoate methane sulfonate - Tricaine, E10521, Sigma Aldrich - in DMEM). The samples were incubated by gently rocking for 15 min or until parasites relaxed and separated. The parasites were then killed by incubation in a solution of […] magnesium chloride (MgCl 2) for 1 min. Afterwards, adult schistosome worms were briefly washed with pre-warmed 1X PBS and then fixed using appropriate solutions for analysis by scanning electron microscopy (SEM) as previously described in literature, [61], [62].
Post fixation, adult schistosomes were stored at 4°C until washing with 0.1 M sodium cacodylate was performed (2 x 30 min each). The worms were then stained with 1% v/v osmium tetroxide water solution (stored at -20°C and pre-warmed at room temperature prior to use) for 2 h and then washed with 0.1 M sodium cacodylate for 30 min. Following staining, worms were dehydrated with an aqueous alcohol series (30, 50, 70, 95 and 100% ethanol in ultra-pure water) by agitating gently on a rocker for 30 min per solution. At the final step, the samples were left in 100% ethanol overnight before being dried with hexamethyldisilazane critical drying point agent (AGR1228, Agar Scientific, Stansted, UK) for at least 3 h. […]

[4] = MTT cytotoxicity assay on HepG2 cells; format: cell-based, Human; details: human, HepG2 cells, MTT, 24 h; three dose response titrations (200 - 1 µM)
Protocol: Compound cytotoxicity on Human Hepatocyte Carcinoma (HepG2) cells (85011430, Sigma Aldrich) was elucidated by the MTT (3-(4,5-dimethylthiazol-2-yl)-2,5-diphenyltetrazolium bromide) tetrazolium reduction assay as previously described, [28], [50]. Briefly, HepG2 cells were seeded at a density of 20,000 per well in 96-well black, clear bottom falcon plate in modified BME medium (50 μl; containing 1% antibiotic/mycotic (Sigma-Aldrich, Gillingham, UK), 1% 200 mM L-glutammine (Gibco, Paisley, UK), 1% MEM non-essential amino acid solution (Gibco, Paisley, UK), and 10% fetal bovine serum (Gibco, Paisley, UK)). HepG2 plates seeded for cytotoxicity screens were treated with compounds 24 h post-seeding. Each compound was tested at 200, 100, 75, 50, 20, 10 and 1 µM; each concentration was assayed in triplicate. Blank wells (no cells), as well as positive (1% v/v Triton X-100, X100, Sigma-Aldrich) and negative (1.25% v/v DMSO or media only) controls, were included in each plate. After addition of compounds, each plate was then incubated for a further 20 h before application of MTT reagent for assessment of compound cytotoxicity (4 h incubation with MTT for a total 24 h cell-drug incubation). The absorbance reading at 570 nm was measured with a POLARstar Omega (BMG Labtech, UK) microtiter plate reader. Dose response curves were generated in GraphPad Prism 7.02 based on the corrected average absorbance of the three replicates for each concentration point.

## c1ccc(Nc2nc(N3CCCC3)nc(N3CCNCC3)n2)cc1 [Compound 7]
[1]
  EC50: 11 µM
[2]; 10 µM
  anti-schistosomula activity (hit on phenotype and motility): remaining active
[2]; 50 µM
  anti-schistosomula activity (hit on phenotype and motility): showed anti-schistosomal activity
[2]; Schistosoma mansoni, average of phenotype and motility metrics, read-out: Schistosomula EC50 Average
  EC50: 5.54 µM
[2]; Schistosoma mansoni, dose response titrations (10 - 0.625 µM), read-out: Schistosomula EC50 Motility
  EC50: 5.03 µM
[2]; Schistosoma mansoni, dose response titrations (10 - 0.625 µM), read-out: Schistosomula EC50 Phenotype
  EC50: 5.65 µM
[2]; average of phenotype and motility metrics, read-out: Schistosomula EC50 Average
  EC50: 5.34 µM
[2]; both 50 and 10 µM
  schistosomula phenotype induced: swollen with some individuals additionally displaying posterior end compression
[3]
  morphological changes of adult worms by SEM: partial loss of tubercles and spines as well as tegument erosion
[4]
  CC50 at 24 h: 13.7 µM

Reference: article PMC7459852, “Identification of 6-(piperazin-1-yl)-1,3,5-triazine as a chemical scaffold with broad anti-schistosomal activities” (Wellcome Open Research, 2020)
